The test system of this experiment is thoracic aortic sections from Ang II-infused WT mice. As to the kind of experiment: Angiotensin II infusion prevention model: aortic fibrosis and inflammation markers (picrosirius red, immunofluorescence). The experiment is classed as in vivo, mouse. The method, then:
There are 8 different sets of in vivo experiments in this study: • A) Phenotypic characterisation of the heart and blood vessels in global IRAP knockout mice and their WT controls treated for 4 weeks with Angiotensin (Ang) II (800 ng/kg/min; s.c.) where mouse hearts and blood vessels were compared to tissue obtained from young WT and IRAP^−/− mice treated with saline. • B) Prevention of Ang II-induced changes in the cardiovascular system following IRAP inhibitor treatment. In the prevention model, WT mice were treated with Ang II (800 ng/kg/min; s.c.)±the IRAP inhibitor (HFI-419; 500 ng/kg/min for 28 days) or HFI-vehicle (1 DMSO:3 HBC). • C) Phenotypic characterisation of the aged heart, kidney and blood vessels in the global IRAP knockout mice where aged WT and IRAP^−/− mouse hearts, kidneys and blood vessels were compared to tissue obtained from young WT and IRAP^−/− mice. • D) Reversal of the age-induced changes in the cardiovascular system following IRAP inhibitor treatment. In the reversal model, aged WT mice were treated with either saline, IRAP inhibitor (HFI-419 at 500 ng/kg/min; compound 1 at 500 ng/kg/min; compound 2 at 50 ng/kg/min) or HFI-vehicle (1 DMSO: 3 HBC) for 4 weeks. • E) Prevention of ischemic-reperfusion injury in isolated hearts taken from aged global IRAP knockout mice and aged IRAP inhibitor (HFI-419 at 500 ng/kg/min; s.c.) treated WT mice compared to age-matched vehicle-treated (1 DMSO:3 HBC; s.c.) WT controls. • F) Phenotypic characterization of cardiac function using echocardiography in the aged global IRAP knockout mice compared to aged and young WT mice. • G) Phenotypic characterization of liver steatosis in IRAP knockout mice in a high fat diet (HFD) model. • H) Reversal of the salt-induced fibrosis in the liver following IRAP inhibitor treatment.
To measure collagen deposition, frozen sections of heart, kidney or aorta (all 5 μm thickness) were air dried for 10 minutes and were brought through 3 times xylene (2 minutes each), and 3 times absolute alcohol washes before being rinsed in tap H2O for 30 seconds. Staining with an optimal concentration of picrosirius red (in this instance 0.05% picrosirius red diluted in saturated picric acid) was performed and left for an hour. Sections were then rinsed in water and differentiated in 0.01 M HCl for 2 minutes, followed by dehydration via 3 times absolute alcohol washes. Then, slides were brought through 3 times xylene washes before being cover slipped according to standard histological techniques using DPX as the mounting medium. Images were taken under ×20 magnification, using bright field (Olympus, BX51) and circularized polarized light microscopy (DM IRB, Leica) while percentage of positive interstitial collagen staining per total field of view was quantified using ImageJ 1.46 software (Java, NIH), and averaged out from a total of eight views as the final percentage collagen content in a particular animal.
Immunostaining was performed on either 5 μm thick transverse frozen heart sections or 5 μm thick frozen thoracic aortic. These sections were air dried and fixed in ice-cold acetone for approximately 15 minutes before washing with 0.01M PBS buffer (3×10 minutes). Sections were then incubated with 10% goat serum in 0.01M PBS for 30 minutes to reduce non-specific binding. If the primary antibody is raised in goat, this pre-blocked medium is substituted with 5% BSA in PBS and Triton-X. Next, blocking buffers were removed and the primary antibody to respective markers were applied overnight at room temperature based on the following dilution and origin of the antibodies: IRAP (1:500, in-house), α-SMA (1:500, Abcam), Vimentin (1:500, Santa Cruz), P-IκBα (1:200, Cell Signalling), F4/80 macrophage (1:100, Serotec), MCP-1 (1:100, Santa Cruz), VWF (1:500, abcam). […]

The mark [1] stands for this setting: Ang II + HFI-419, 4 weeks, FIG. 4.
Where [2] appears, read: Ang II + HFI-419, 4 weeks, immunofluorescence, FIG. 3.

On to `CCOC(=O)C1=C(NC(C)=O)Oc2cc(O)ccc2C1c1cccnc1` (stereo not shown) [HFI-419], for which the “Ang II-induced vascular fibrosis (aortic collagen, picrosirius red)” value (Ang II 800 ng/kg/min + HFI-419 500 ng/kg/min, 4 weeks, FIG. 3) is reported as “prevented”. Under setting [1], the “ICAM-1 expression in aorta” value is on record as “reductions”, the “MCP-1 expression in aorta” value is on record as “reductions”, the “P-IκBα (marker for NFκB activation) expression in aorta” value is “reductions” and the “VCAM-1 expression in aorta” value was “reductions”. For the same compound, under setting [2], the “TGF-β1 expression in aorta” value is given as “decreased” and the “α-SMA expression in aorta” value was “decreased”.

For the origin of these results see patent publication US11834663B2, “Fibrotic treatment” (Monash University, priority 2015, dated 2023).
